By mass density is commonly meant the mass of a sample divided by its volume.

Numbers after ± are expanded uncertainties.

The conditions of the data set: 298.15 K; 101.33 kPa; Liquid; Vibrating tube method.
As for `CN(C)C=O` [dimethylformamide], the mass density is 943.81 ± 0.2 kg/m3.
As to `CCOC(C)=O` [ethyl acetate], the mass density was determined as 894.4 ± 0.6 kg/m3.
In the case of `CC(=O)Oc1ccccc1` [phenyl ethanoate], the mass density is reported as 1073.3 ± 0.42 kg/m3.
In the case of `CC1CCCCC1` [methylcyclohexane] it was 764.96 ± 0.13 kg/m3.
In the case of `CCCCO` [butan-1-ol] it was 805.8 ± 0.2 kg/m3; in that of `COC(=O)c1ccccc1C(=O)OC` [dimethyl 1,2-benzenedicarboxylate], 1186.9 ± 0.2 kg/m3.

The values are drawn from the NIST ThermoML archive (doi:10.1016/j.fluid.2004.12.004).
